The text below walks through data of ChEMBL document CHEMBL1141825, “Chemistry of verongida sponges. 9.1 secondary metabolite composition of the caribbean sponge aplysina cauliformis” (J Nat Prod, 1999).

Values after ≈ are worked out from the molar mass of the structure shown.

This experiment has as its system HeLa. As to the kind of experiment: Antiproliferative activity against human HeLa cells assessed as [3H]thymidine incorporation after 72 hrs by miniaturized, improved, nucleic acid precursor incorporation assay. It counts as functional, cell-based.

Consider `COC(=O)NCC(=O)CCNC(=O)C1=NO[C@]2(C=C(Br)C(OC)=C(Br)[C@@H]2O)C1`, for which the IC50 (commonly the concentration that inhibits the measured activity by half) was found to be 50 µg/mL (≈ 95.2 µM).
